Results published in US20090227607A1, “DEAZAPURINES USEFUL AS INHIBITORS OF JANUS KINASES” (priority 2006, published 2009).

Target: T1, JAK3 (Homo sapiens, UniProt P52333)
T1 sequence (P52333 1-1124): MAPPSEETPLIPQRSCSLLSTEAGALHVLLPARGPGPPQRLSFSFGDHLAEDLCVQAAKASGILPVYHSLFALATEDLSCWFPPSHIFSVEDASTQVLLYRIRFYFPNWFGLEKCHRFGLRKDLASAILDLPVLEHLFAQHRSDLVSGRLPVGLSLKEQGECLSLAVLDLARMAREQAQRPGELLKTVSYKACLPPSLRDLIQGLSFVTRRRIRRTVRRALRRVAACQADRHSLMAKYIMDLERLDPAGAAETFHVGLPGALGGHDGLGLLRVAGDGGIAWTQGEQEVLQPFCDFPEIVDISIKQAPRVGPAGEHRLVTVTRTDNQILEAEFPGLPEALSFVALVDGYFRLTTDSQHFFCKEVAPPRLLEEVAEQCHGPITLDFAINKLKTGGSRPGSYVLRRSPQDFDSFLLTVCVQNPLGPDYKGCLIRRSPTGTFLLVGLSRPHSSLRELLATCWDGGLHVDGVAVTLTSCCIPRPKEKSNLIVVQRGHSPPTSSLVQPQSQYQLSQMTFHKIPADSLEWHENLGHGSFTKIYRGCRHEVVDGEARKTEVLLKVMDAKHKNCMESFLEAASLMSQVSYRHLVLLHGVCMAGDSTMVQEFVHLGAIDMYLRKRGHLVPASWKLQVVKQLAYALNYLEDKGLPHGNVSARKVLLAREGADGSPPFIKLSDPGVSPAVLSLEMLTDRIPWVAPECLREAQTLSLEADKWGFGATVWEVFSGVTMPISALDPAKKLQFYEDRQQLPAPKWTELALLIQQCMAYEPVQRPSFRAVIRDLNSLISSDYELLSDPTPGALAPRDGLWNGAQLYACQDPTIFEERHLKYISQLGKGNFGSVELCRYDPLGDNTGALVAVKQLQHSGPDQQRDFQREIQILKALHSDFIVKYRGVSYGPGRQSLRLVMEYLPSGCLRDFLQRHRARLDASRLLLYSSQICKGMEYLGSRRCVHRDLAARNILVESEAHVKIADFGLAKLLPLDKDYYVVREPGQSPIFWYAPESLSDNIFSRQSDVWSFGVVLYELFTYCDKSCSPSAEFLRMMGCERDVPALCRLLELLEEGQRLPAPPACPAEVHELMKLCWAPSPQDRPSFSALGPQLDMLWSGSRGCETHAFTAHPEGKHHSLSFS
Assay: JAK3 Inhibition Assay
Assay type: biochemical
Conditions: 1 μM poly(Glu)4Tyr, 5 μM ATP, 1 nM JAK3, 25° C.; read-out: JAK3 enzyme inhibition data (Ki)
Protocol: (§1) Compounds were screened for their ability to inhibit JAK3 using the assay shown below. Reactions were carried out in a kinase buffer containing 100 mM HEPES (pH 7.4), 1 mM DTT, 10 mM MgCl2, 25 mM NaCl, and 0.01% BSA. Substrate concentrations in the assay were 5 μM ATP (200 uCi/μmole ATP) and 1 μM poly(Glu)4Tyr. Reactions were carried out at 25° C. and 1 nM JAK3.
(§2) To each well of a 96 well polycarbonate plate was added 1.5 μl of a candidate JAK3 inhibitor along with 50 μl of kinase buffer containing 2 μM poly(Glu)4Tyr and […]. This was then mixed and […] of kinase buffer containing 2 nM JAK3 enzyme was added to start the reaction. After 20 minutes at room temperature (25° C.), the reaction was stopped with 50 μl of 20% trichloroacetic acid (TCA) that also contained 0.4 mM ATP. The entire contents of each well were then transferred to a 96 well glass fiber filter plate using a TomTek Cell Harvester. After washing, 60 μl of scintillation fluid was added and ^33P incorporation detected on a Perkin Elmer TopCount.
(§3) Tables 5 and 6 depict enzyme inhibition data (Ki) for certain exemplary compounds. Compound numbers in Tables 5 and 6 correspond to those compounds depicted in Tables 1 and 2, respectively.

Ki [nM] | SMILES
100 to 500 | C[C@H](O)CNC(=O)c1cc(-c2ncnc3[nH]ccc23)c[nH]1 [Compound 140]
100 to 500 | CC(C)(CC(=O)O)CC(=O)Nc1nc(-c2ncnc3[nH]ccc23)cs1 [Compound 145]
100 to 500 | O=C(O)CCC(=O)Nc1nc(-c2ncnc3[nH]ccc23)cs1 [Compound 146]
100 to 500 | COC(=O)C1CC=CCC1C(=O)Nc1nc(-c2ncnc3[nH]ccc23)cs1 (stereo not shown) [Compound 149]
100 to 500 | COC(=O)C1C2C=CC(C2)C1C(=O)Nc1nc(-c2ncnc3[nH]ccc23)cs1 (stereo not shown) [Compound 155]
100 to 500 | Cc1c[nH]c2ncnc(-c3cnn(C)c3)c12 [Compound 160]
100 to 500 | CCCn1cc(-c2ncnc3[nH]cc(C)c23)cn1 [Compound 161]
100 to 500 | Cc1c[nH]c2ncnc(-c3cnn(CC(C)C)c3)c12 [Compound 162]
100 to 500 | Cc1c[nH]c2ncnc(-c3cnn(CCC(C)C)c3)c12 [Compound 163]
100 to 500 | CC(C)CCn1cc(-c2ncnc3[nH]cc(Cl)c23)cn1 [Compound 164]
100 to 500 | CCCn1cc(-c2ncnc3[nH]cc(Cl)c23)cn1 [Compound 165]
100 to 500 | CC(C)Cn1cc(-c2ncnc3[nH]cc(Cl)c23)cn1 [Compound 166]
< 100 | O=C1CCC(C(=O)Nc2nc(-c3ncnc4[nH]ccc34)cs2)C1 (stereo not shown) [Compound 167]
100 to 500 | CC(=O)NCCCC(=O)Nc1nc(-c2ncnc3[nH]ccc23)cs1 [Compound 168]
< 100 | CC(=O)N1CCC(C(=O)Nc2nc(-c3ncnc4[nH]ccc34)cs2)CC1 [Compound 169]
100 to 500 | O=C(CCC(=O)C1CC1)Nc1nc(-c2ncnc3[nH]ccc23)cs1 [Compound 170]
< 100 | COC(=O)N1CCC(C(=O)Nc2nc(-c3ncnc4[nH]ccc34)cs2)CC1 [Compound 171]
100 to 500 | CN1CC(C(=O)Nc2nc(-c3ncnc4[nH]ccc34)cs2)CC1=O (stereo not shown) [Compound 172]
< 100 | O=C(Nc1nc(-c2ncnc3[nH]ccc23)cs1)C1CCN(C(=O)c2ccccc2)CC1 [Compound 173]
100 to 500 | CC(=O)NCCC(=O)Nc1nc(-c2ncnc3[nH]ccc23)cs1 [Compound 174]
100 to 500 | COc1ccc(C(=O)Nc2nc(-c3ncnc4[nH]ccc34)cs2)cc1 [Compound 175]
< 100 | O=C(Nc1nc(-c2ncnc3[nH]ccc23)cs1)C1CCCNC1 (stereo not shown) [Compound 176]
100 to 500 | CC(C)(C)OC(=O)N1CCCC(C(=O)Nc2nc(-c3ncnc4[nH]ccc34)cs2)C1 (stereo not shown) [Compound 177]
100 to 500 | CC(C)(C)OC(=O)N1CCC(C(=O)Nc2nc(-c3ncnc4[nH]ccc34)cs2)CC1 [Compound 178]
< 100 | CS(=O)(=O)N1CCC(C(=O)Nc2nc(-c3ncnc4[nH]ccc34)cs2)CC1 [Compound 179]
100 to 500 | O=C1[C@H]2CCCC[C@@H]2C(=O)N1c1nc(-c2ncnc3[nH]ccc23)cs1 [Compound 180]

Target: JAK-2 enzyme (Homo sapiens, UniProt O60674)
Sequence (O60674 whole entry, species assumed): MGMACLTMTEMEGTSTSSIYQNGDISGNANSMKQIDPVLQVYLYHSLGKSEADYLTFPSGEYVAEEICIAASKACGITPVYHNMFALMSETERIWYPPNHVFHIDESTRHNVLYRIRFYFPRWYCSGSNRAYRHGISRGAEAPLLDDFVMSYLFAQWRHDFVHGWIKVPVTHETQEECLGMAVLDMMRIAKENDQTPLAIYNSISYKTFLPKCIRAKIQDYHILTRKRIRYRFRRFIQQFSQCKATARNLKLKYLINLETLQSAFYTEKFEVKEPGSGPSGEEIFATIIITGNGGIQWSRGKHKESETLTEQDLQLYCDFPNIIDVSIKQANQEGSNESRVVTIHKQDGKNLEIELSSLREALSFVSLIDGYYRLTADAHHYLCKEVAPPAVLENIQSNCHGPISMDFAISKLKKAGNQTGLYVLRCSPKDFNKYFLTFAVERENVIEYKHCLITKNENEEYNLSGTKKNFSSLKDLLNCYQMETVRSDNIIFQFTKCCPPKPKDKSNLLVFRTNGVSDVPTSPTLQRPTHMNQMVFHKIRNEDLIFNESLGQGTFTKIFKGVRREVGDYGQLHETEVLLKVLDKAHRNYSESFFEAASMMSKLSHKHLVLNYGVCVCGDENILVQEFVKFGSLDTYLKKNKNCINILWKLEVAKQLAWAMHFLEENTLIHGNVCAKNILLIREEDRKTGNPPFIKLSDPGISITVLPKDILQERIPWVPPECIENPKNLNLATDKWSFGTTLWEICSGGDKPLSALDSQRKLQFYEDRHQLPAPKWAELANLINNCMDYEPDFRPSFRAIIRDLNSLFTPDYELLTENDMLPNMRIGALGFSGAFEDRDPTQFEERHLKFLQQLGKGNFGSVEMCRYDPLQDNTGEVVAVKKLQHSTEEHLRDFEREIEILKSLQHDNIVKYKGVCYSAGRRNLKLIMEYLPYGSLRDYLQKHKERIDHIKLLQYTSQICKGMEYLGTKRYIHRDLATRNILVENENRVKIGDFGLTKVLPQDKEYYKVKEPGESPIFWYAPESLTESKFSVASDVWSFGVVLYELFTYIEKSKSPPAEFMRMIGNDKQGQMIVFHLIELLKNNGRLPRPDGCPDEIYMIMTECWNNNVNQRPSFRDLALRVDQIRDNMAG
Assay: JAK2 Inhibition Assay
Assay type: biochemical
Conditions: 15 μM poly(Glu)4Tyr, 12 μM ATP, 25° C.
Protocol: as §1, §2
The assays were as described above in Example 36 except that JAK-2 enzyme was used, the final poly(Glu)4Tyr concentration was 15 μM, and final ATP concentration was 12 μM.
as §3

Ki [nM] | SMILES
< 100 | C[C@H](O)CNC(=O)c1cc(-c2ncnc3[nH]ccc23)c[nH]1 [Compound 140]
100 to 500 | CC(C)(CC(=O)O)CC(=O)Nc1nc(-c2ncnc3[nH]ccc23)cs1 [Compound 145]
100 to 500 | O=C(O)CCC(=O)Nc1nc(-c2ncnc3[nH]ccc23)cs1 [Compound 146]
< 100 | COC(=O)C1CC=CCC1C(=O)Nc1nc(-c2ncnc3[nH]ccc23)cs1 (stereo not shown) [Compound 149]
< 100 | COC(=O)C1C2C=CC(C2)C1C(=O)Nc1nc(-c2ncnc3[nH]ccc23)cs1 (stereo not shown) [Compound 155]
100 to 500 | Cc1c[nH]c2ncnc(-c3cnn(C)c3)c12 [Compound 160]
100 to 500 | CCCn1cc(-c2ncnc3[nH]cc(C)c23)cn1 [Compound 161]
< 100 | Cc1c[nH]c2ncnc(-c3cnn(CC(C)C)c3)c12 [Compound 162]
< 100 | Cc1c[nH]c2ncnc(-c3cnn(CCC(C)C)c3)c12 [Compound 163]
< 100 | CC(C)CCn1cc(-c2ncnc3[nH]cc(Cl)c23)cn1 [Compound 164]
< 100 | CCCn1cc(-c2ncnc3[nH]cc(Cl)c23)cn1 [Compound 165]
< 100 | CC(C)Cn1cc(-c2ncnc3[nH]cc(Cl)c23)cn1 [Compound 166]
< 100 | O=C1CCC(C(=O)Nc2nc(-c3ncnc4[nH]ccc34)cs2)C1 (stereo not shown) [Compound 167]
< 100 | CC(=O)NCCCC(=O)Nc1nc(-c2ncnc3[nH]ccc23)cs1 [Compound 168]
< 100 | CC(=O)N1CCC(C(=O)Nc2nc(-c3ncnc4[nH]ccc34)cs2)CC1 [Compound 169]
< 100 | O=C(CCC(=O)C1CC1)Nc1nc(-c2ncnc3[nH]ccc23)cs1 [Compound 170]
< 100 | COC(=O)N1CCC(C(=O)Nc2nc(-c3ncnc4[nH]ccc34)cs2)CC1 [Compound 171]
< 100 | CN1CC(C(=O)Nc2nc(-c3ncnc4[nH]ccc34)cs2)CC1=O (stereo not shown) [Compound 172]
< 100 | O=C(Nc1nc(-c2ncnc3[nH]ccc23)cs1)C1CCN(C(=O)c2ccccc2)CC1 [Compound 173]
< 100 | CC(=O)NCCC(=O)Nc1nc(-c2ncnc3[nH]ccc23)cs1 [Compound 174]
< 100 | COc1ccc(C(=O)Nc2nc(-c3ncnc4[nH]ccc34)cs2)cc1 [Compound 175]
< 100 | O=C(Nc1nc(-c2ncnc3[nH]ccc23)cs1)C1CCCNC1 (stereo not shown) [Compound 176]
100 to 500 | CC(C)(C)OC(=O)N1CCCC(C(=O)Nc2nc(-c3ncnc4[nH]ccc34)cs2)C1 (stereo not shown) [Compound 177]
100 to 500 | CC(C)(C)OC(=O)N1CCC(C(=O)Nc2nc(-c3ncnc4[nH]ccc34)cs2)CC1 [Compound 178]
< 100 | CS(=O)(=O)N1CCC(C(=O)Nc2nc(-c3ncnc4[nH]ccc34)cs2)CC1 [Compound 179]
100 to 500 | O=C1[C@H]2CCCC[C@@H]2C(=O)N1c1nc(-c2ncnc3[nH]ccc23)cs1 [Compound 180]
